Values joined by “and” are separate entries in the source; they are usually repeats but may differ in a detail not shown here. Identical values can stand only once.
Assays:
SARS-CoV 3CLpro = SARS-CoV 3CLpro (Severe acute respiratory syndrome coronavirus, UniProt P0C6X7); type: biochemical
IL-6, IL-1β, IL-8 mRNA = test: Proinflammatory gene mRNA by RT-PCR in LPS-stimulated A549 cells; type: cell-based, human; conditions: 20 µM; for potency in reducing the levels of the four proinflammatory factors (TNF-α, IL-6, IL-1β, IL-8), compared to UJ: LPS-stimulated A549 cells
SARS-CoV-2 3CLpro = SARS-CoV-2 3CLpro (Severe acute respiratory syndrome coronavirus 2, UniProt P0DTD1); test: Protease activity assay with IQF peptide substrate, dose-response; type: biochemical; conditions: for IC50: IC50 against SARS-CoV-2 3CLpro, 0.125 µM 3CLpro, 1 h preincubation at 37°C, 1.25 µM IQF peptide substrate, 3 h, N = 3, mean ± SEM; for relative SARS-CoV-2 3CLpro activity (down from 100%): compound at 12.5 µM, data not shown
SARS-CoV-2 = test: Plaque assay in SARS-CoV-2-infected Vero E6 cells; type: cell-based
TNF-α = TNF-α protein level by western blot in LPS-stimulated A549 cells; type: cell-based, human; conditions: 20 µM, 1 h before 10 μg/ml LPS, 24 h
Text: For western blot analysis, an equal amount of the samples were resolved by SDS-PAGE, followed by transfer to PVDF membranes, following the protocol published previously ([Chiang et al., 2020]). Antibodies against TNF-α (GTX110520) and β-actin (GTX109639) were purchased from GeneTex, Taiwan. HRP-conjugated secondary antibodies were from Jackson ImmunoResearch Laboratories, Inc., United States. WesternBright® ECL kits were used for protein visualization (Advansta Inc., United States). Levels of protein expression were quantified in Fiji ([Schindelin et al., 2012]).
Human alveolar basal epithelial A549 cells have been used to investigate several lung diseases at the cellular level, including endotoxin-induced acute pneumonia ([Zhang J. et al., 2020]). To evaluate the anti-inflammatory effect of UJ, A549 cells were induced with lipopolysaccharide (LPS) for 24 h with or without treatment with UJ. Dexamethasone (Dex), an anti-inflammatory agent ([Chen et al., 2021]), was included as a positive control. […] In addition, the expression levels of proinflammatory genes, including interleukin 1β (IL-1β), IL-6 and IL-8 increased by 1.5- to 2-fold in LPS-stimulated A549 cells, compared with the control group (Figures 4B–D). […] Compared to the positive control (Dex at 5 µM), UJ treatment at 20 µM gave rise to a greater decrease in the TNF-α protein level and IL-6 and IL-8 mRNA. […]

in vitro = conditions: African green monkey, half-maximal cytotoxic concentration (CC50)
[1] = 1 h before 10 μg/ml LPS, 24 h, A549 cells

Structure (SMILES) | relative SARS-CoV 3CLpro activity (down from 100%) (SARS-CoV 3CLpro) | potency in reducing the levels of the four proinflammatory factors (TNF-α, IL-6, IL-1β, IL-8), compared to UJ (IL-6, IL-1β, IL-8 mRNA) | IC50 (SARS-CoV-2 3CLpro) | relative SARS-CoV-2 3CLpro activity (down from 100%) (SARS-CoV-2 3CLpro) | also measured
COc1c(-c2ccc(O)cc2)oc2cc(O)cc(O)c2c1=O [Ikae, isokaempferide] | 60–70% | relatively moderate potency | > 20 µM and 40.2 µM | 60–70% | 
O=c1c(O)c(-c2ccc(O)cc2)oc2cc(O)cc(O)c12 [Kae, kaempferol] | 60–70% | relatively moderate potency | > 20 µM and 21.7 µM | 60–70% | 
O=c1cc(-c2ccc(O)c(O)c2)oc2cc(O)cc(O)c12 [Lu, luteolin] |  |  | > 20 µM and 20.5 µM |  | 
CCC(CC)COC(=O)[C@H](C)N[P@](=O)(OC[C@H]1O[C@@](C#N)(c2ccc3c(N)ncnn23)[C@H](O)[C@@H]1O)Oc1ccccc1 [Rem, Remdesivir] |  |  |  |  | inhibition at 2 µM (SARS-CoV-2; Severe acute respiratory syndrome coronavirus 2, Vero C1008, 2 µM, Vero E6 cells, plaque assay, read-out: inhibition of SARS-CoV-2 infection): ~95%
C=C1CCCC(C)(C)[C@@H]1Cc1c(O)cc2oc(-c3ccc(O)c(O)c3)cc(=O)c2c1O [UJ, ugonin J] | about 15% |  | 0.94 µM and ~0.94 µM | about 15% | reduction of TNF-α protein expression level (TNF-α): more than 2 fold; downregulation of IL-1β mRNA expression level (IL-6, IL-1β, IL-8 mRNA; [1]): more than 1 fold; downregulation of IL-6 mRNA expression level (IL-6, IL-1β, IL-8 mRNA; [1]): more than 1 fold; downregulation of IL-8 mRNA expression level (IL-6, IL-1β, IL-8 mRNA; [1]): more than 1 fold; EC50 (SARS-CoV-2; Severe acute respiratory syndrome coronavirus 2, Vero C1008, Vero E6 cells, 100 PFU, 1 h pretreatment, 3 days, N = 3, mean ± SEM, read-out: half-maximal effective concentration (EC50) against SARS-CoV-2 infection): ~2.38 µM; prevention of SARS-CoV-2 infection (SARS-CoV-2; pretreatment at 10 µM, Vero E6 cells, plaque assay): near complete prevention; CC50 at 48 h (in vitro): ~783 µM
